Measurements as given in patent US20040176361A1, “Fused heterocyclic compound and medicinal use thereof” (priority 2001, published 2004).

melting point	Compound
164 to 167 °C	CC1CN(c2cc3ccccc3c(=O)[nH]2)CCN1 (stereo not shown)
208 to 210 °C	CC1CN(c2cc3ccccc3c(=O)[nH]2)CC(C)N1 (stereo not shown)
155 to 156 °C	CN1CCCC(c2cc3ccccc3c(=O)[nH]2)C1 (stereo not shown)
242 to 243 °C (dec.)	Cc1ccc2c(=O)[nH]c(N3CCN(C)CC3)cc2c1
224 to 225 °C (dec.)	Cc1cccc2cc(N3CCN(C)CC3)[nH]c(=O)c12
> 270 °C	Br.O=c1[nH]c(C2CCNCC2)cc2ccccc12
233 to 234 °C (dec.)	CN(C)C1CCN(c2cc3ccccc3c(=O)[nH]2)C1 (stereo not shown) [Example 2, 3-(3-dimethylaminopyrrolidine-1-yl)-2H-isoquinolin-1-one]
208 to 209 °C (dec.)	CCCN1CCN(c2cc3ccccc3c(=O)[nH]2)CC1 [Example 7, 3-(4-propylpiperazine-1-yl)-2H-isoquinolin-1-one]
257 to 259 °C (dec.)	CS(=O)(=O)N1CCN(c2cc3ccccc3c(=O)[nH]2)CC1 [Example 8, 3-(4-methanesulfonylpiperazin-1-yl)-2H-isoquinolin-1-one]
191 to 192 °C (dec.)	CCOC(=O)N1CCN(c2cc3ccccc3c(=O)[nH]2)CC1 [Example 9, 3-(4-ethoxycarbonylpiperazin-1-yl)-2H-isoquinolin-1-one]
171 to 172 °C (dec.)	CN1CCCN(c2cc3ccccc3c(=O)[nH]2)CC1 [Example 10, 3-(4-methylhomopiperazin-1-yl)-2H-isoquinolin-1-one]
236 to 237 °C (dec.)	Cc1ccc2c(=O)[nH]c(N3CCN(CCO)CC3)cc2c1 [Example 35, 3-(4-(2-hydroxyethyl)piperazin-1-yl)-6-methyl-2H-isoquinolin-1-one]
170 to 172 °C	CN1CCN(C(=O)c2cc3ccccc3c(=O)[nH]2)CC1 [Example 83, 3-((4-methylpiperazin-1-yl)carbonyl)-2H-isoquinolin-1-one]
120 to 122 °C	CN1CCN(CCCc2cc3ccccc3c(=O)[nH]2)CC1 [Example 148, 3-(3-(4-methylpiperazin-1-yl)propyl)-2H-isoquinolin-1-one]
172 to 174 °C	CN1CCN(c2cc3ccccc3c(=O)[nH]2)[C@@H](CO)C1 [Example 151, (R)-3-(2-hydroxymethyl-4-methylpiperazin-1-yl)-2H-isoquinolin-1-one]
169 to 171 °C	CN1CCN(c2cc3ccccc3c(=O)[nH]2)[C@H](CO)C1 [Example 152, (S)-3-(2-hydroxymethyl-4-methylpiperazin-1-yl)-2H-isoquinolin-1-one]
105 to 109 °C	CCOC(=O)C1CN(c2cc3ccccc3c(=O)[nH]2)CCN1C (stereo not shown) [Example 154, 3-(3-ethoxycarbonyl-4-methylpiperazin-1-yl)-2H-isoquinolin-1-one]
214 to 216 °C	CN1CCC=C(c2cc3ccccc3c(=O)[nH]2)C1 [Example 193, 3-(1-methyl-1,2,3,6-tetrahydropyridin-5-yl)-2H-isoquinolin-1-one]
> 120 °C (dec.)	O=c1[nH]c(N2CCNC(CO)C2)cc2ccccc12 (stereo not shown) [Example 194, 3-(3-hydroxymethylpiperazin-1-yl)-2H-isoquinolin-1-one]
152 to 154 °C	CCCN1CCN(c2cc3ccccc3c(=O)[nH]2)CC1CO (stereo not shown) [Example 196, 3-(3-hydroxymethyl-4-propylpiperazin-1-yl)-2H-isoquinolin-1-one]

Second part, the molecule before the results:

Compound	melting point
Cc1cccc2c(=O)[nH]c(CC3CN4CCC3CC4)nc12 (stereo not shown)	187 to 188 °C (dec.)
CN1CCC(c2cc3ncccc3c(=O)[nH]2)CC1	> 240 °C (dec.)
Cc1c(C2CCN(C)CC2)[nH]c(=O)c2ccccc12	202 to 204 °C
Cc1ccc2c(=O)[nH]c(C3CCN(C)CC3)cc2c1	236 to 238 °C
Cc1ccc2cc(C3CCN(C)CC3)[nH]c(=O)c2c1	239 to 241 °C
Cc1cccc2cc(C3CCN(C)CC3)[nH]c(=O)c12	200 to 202 °C
CN1CCC(c2cc3ccc(O)cc3c(=O)[nH]2)CC1.Cl	284 to 286 °C
Br.O=c1[nH]c(C2CCNCC2)c(-c2ccccc2)c2ccccc12	> 270 °C
CN(C)C1CCN(c2cc3ccc(Br)cc3c(=O)[nH]2)CC1 [Example 31, 7-bromo-3-(4-dimethylaminopiperidin-1-yl)-2H-isoquinolin-1-one]	227 to 228 °C (dec.)
CN(C)C1CCN(c2cc3c(Br)cccc3c(=O)[nH]2)CC1 [Example 32, 5-bromo-3-(4-dimethylaminopiperidin-1-yl)-2H-isoquinolin-1-one]	214 to 215 °C (dec.)
O=c1[nH]c(N2CCN(CCO)CC2)cc2c(F)cccc12 [Example 33, 5-fluoro-3-(4-(2-hydroxyethyl)piperazin-1-yl)-2H-isoquinolin-1-one]	207 to 208 °C (dec.)
Cc1cccc2cc(N3CCN(CCO)CC3)[nH]c(=O)c12 [Example 41, 3-[4-(2-hydroxyethyl)piperazin-1-yl]-8-methyl-2H-isoquinolin-1-one]	209 to 210 °C (dec.)
Cc1cccc2c(=O)[nH]c(N3CCN(CCCCN4CCN(C)CC4)CC3)cc12 [Example 75, 5-methyl-3-(4-(4-(4-methylpiperazin-1-yl)butyl)piperazin-1-yl)-2H-isoquinolin-1-one]	202 to 203 °C (dec.)
O=c1[nH]c(N2CCN(CCCCN3CCCCC3)CC2)cc2ccc(Br)cc12 [Example 76, 7-bromo-3-{4-[4-(piperidin-1-yl)butyl]piperazin-1-yl}-2H-isoquinolin-1-one]	211 to 212 °C (dec.)
O=c1[nH]c(N2CCN(CCCCN3CCCCC3)CC2)cc2c(Cl)cccc12 [Example 77, 5-chloro-3-{4-[4-(piperidin-1-yl)butyl]piperazin-1-yl}-2H-isoquinolin-1-one]	172 to 173 °C (dec.)
O=c1[nH]c(N2CCN(CCCCN3CCCCC3)CC2)cc2c(Br)cccc12 [Example 78, 5-bromo-3-{4-[4-(piperidin-1-yl)butyl]piperazin-1-yl}-2H-isoquinolin-1-one]	165 to 166 °C (dec.)
COc1ccc(-c2c(C3CCN(C)CC3)[nH]c(=O)c3ccccc23)cc1 [Example 99, 4-(4-methoxyphenyl)-3-(1-methylpiperidin-4-yl)-2H-isoquinolin-1-one]	209 to 211 °C
CN1CCC(c2[nH]c(=O)c3ccccc3c2-c2ccc(Cl)cc2)CC1 [Example 100, 4-(4-chlorophenyl)-3-(1-methylpiperidin-4-yl)-2H-isoquinolin-1-one]	254 to 256 °C

Compound	melting point
CN1CCN(N2CC(=O)c3c(ccc4ccccc34)C2)CC1 [Example 114, 3-(4-methylpiperazin-1-yl)-2H-benz[f]isoquinolin-1-one]	253 to 254 °C (dec.)
CN(C)C1CCN(N2CC(=O)c3c(ccc4ccccc34)C2)CC1 [Example 115, 3-(4-dimethylaminopiperidin-1-yl)-2H-benz[f]isoquinolin-1-one]	232 to 233 °C (dec.)
Cc1cccc2c(=O)[nH]c(C3CCC(N(C)C)CC3)nc12 (stereo not shown) [Example 137, 8-methyl-2-(4-dimethylaminocyclohexan-1-yl)-3H-quinazolin-4-one]	181 to 183 °C (dec.)
CN(C)C1CCC(c2cc3ccccc3c(=O)[nH]2)CC1 (stereo not shown) [Example 147, 3-(4-(dimethylamino)cyclohexan-1-yl)-2H-isoquinolin-1-one]	256 to 258 °C
CN1CCC(C2Cc3ccccc3C(=O)N2)CC1 (stereo not shown) [Example 158, 3-(1-methylpiperidin-4-yl)-3,4-dihydro-2H-isoquinolin-1-one]	139 to 141 °C
Cc1ccc(-c2c(C3CCN(C)CC3)[nH]c(=O)c3ccccc23)cc1 [Example 163, 4-(4-methylphenyl)-3-(1-methylpiperidin-4-yl)-2H-isoquinolin-1-one]	244 to 246 °C
CN1CCC(c2[nH]c(=O)c3ccccc3c2-c2ccc(F)cc2)CC1 [Example 164, 4-(4-fluorophenyl)-3-(1-methylpiperidin-4-yl)-2H-isoquinolin-1-one]	269 to 271 °C
COc1ccccc1-c1c(C2CCN(C)CC2)[nH]c(=O)c2ccccc12 [Example 167, 4-(2-methoxyphenyl)-3-(1-methylpiperidin-4-yl)-2H-isoquinolin-1-one]	153 to 155 °C
Cc1cccc(-c2c(C3CCN(C)CC3)[nH]c(=O)c3ccccc23)c1 [Example 168, 4-(3-methylphenyl)-3-(1-methylpiperidin-4-yl)-2H-isoquinolin-1-one]	214 to 216 °C
Cc1ccccc1-c1c(C2CCN(C)CC2)[nH]c(=O)c2ccccc12 [Example 169, 4-(2-methylphenyl)-3-(1-methylpiperidin-4-yl)-2H-isoquinolin-1-one]	249 to 251 °C
COc1cccc(-c2c(C3CCN(C)CC3)[nH]c(=O)c3ccccc23)c1 [Example 170, 4-(3-methoxyphenyl)-3-(1-methylpiperidin-4-yl)-2H-isoquinolin-1-one]	181 to 183 °C
COCOc1cccc2c(=O)[nH]c(C3CCN(C)CC3)cc12 [Example 171, 5-methoxymethyloxy-3-(1-methylpiperidin-4-yl)-2H-isoquinolin-1-one]	194 to 196 °C
CN1CCC(c2cc3c(N(C)C)cccc3c(=O)[nH]2)CC1 [Example 180, 5-(dimethylamino)-3-(1-methylpiperidin-4-yl)-2H-isoquinolin-1-one]	216 to 218 °C
CN1CCC(c2[nH]c(=O)c3ccccc3c2-c2ccccc2F)CC1 [Example 182, 4-(2-fluorophenyl)-3-(1-methylpiperidin-4-yl)-2H-isoquinolin-1-one]	247 to 249 °C
COCOc1cccc2c(=O)[nH]c(CCCN(C)C)cc12 [Example 185, 5-methoxymethyloxy-3-(3-dimethylaminopropyl)-2H-isoquinolin-1-one]	110 to 112 °C
COCOc1cccc2c(=O)[nH]c(CCCCN(C)C)cc12 [Example 187, 5-methoxymethyloxy-3-(4-dimethylaminobutyl)-2H-isoquinolin-1-one]	109 to 111 °C
O=c1[nH]c(C2CCCN(Cc3ccccc3)C2)cc2ccccc12 (stereo not shown) [Example 191, 3-(1-benzylpiperidin-3-yl)-2H-isoquinolin-1-one]	176 to 178 °C
